For data set [1], the target named is T1, NACHT, LRR and PYD domains-containing protein 3 (Homo sapiens, UniProt Q96P20). The data set is described as follows: Inhibition of NLRP3 inflammasome activation in PMA-differentiated human THP-1 cells assessed as reduction in IL-1beta secretion pre-stimulated with PMA for 24 hrs followed by compound addition and measured after 30 mins by ELISA. In kind it is cell-based.

The test system of data set [2] is BMDM. The data set is described as follows: Cytotoxicity against C57 mouse BMDM cells assessed as reduction in cell viability upto 50 uM incubated for 24 hrs by CCK8 assay. In kind it is toxicity, cell-based. Background: Tetrazolium dyes change colour on reduction, which living cells bring about.
The next data set has as its system THP-1. The data set is described as follows: Cytotoxicity against PMA-differentiated human THP-1 cells assessed as reduction in cell viability upto 50 uM incubated for 24 hrs by CCK8 assay. The data set is classed as toxicity, cell-based. As to conditions: thp-1, 24 h.
For another data set, the system named is L02. The data set is described as follows: Cytotoxicity against human L02 cells assessed as reduction in cell viability upto 50 uM incubated for 24 hrs by CCK8 assay. The data set is classed as toxicity, cell-based. As to conditions: l02, 24 h.
The test system of another data set is HEK-293T. The data set is described as follows: Cytotoxicity against HEK293T cells assessed as reduction in cell viability upto 50 uM incubated for 24 hrs by CCK8 assay. The data set is classed as toxicity, cell-based. As to conditions: human.
For data set [3], the target named is NACHT, LRR and PYD domains-containing protein 3 (Mus musculus) (UniProt Q8R4B8). Briefly: Inhibition of NLRP3 inflammasome activation in LPS/Nigericin induced C57 mouse BMDM cells assessed as reduction in […] preincubated with LPS for 3 hrs followed by compound addition for 30 mins prior to nigericin addition and measured after 30 mins by PI/Hoechst 33342 staining based analysis. The data set is classed as cell-based. As to conditions: time 1.0 hrs.

For data set [4] the target is unchanged. Briefly: Inhibition of NLRP3 inflammasome activation in LPS/Nigericin induced C57 mouse BMDM cells assessed as reduction in ASC expression in cell supernatant at 2.5 to 10 uM preincubated with LPS for 3 hrs followed by compound addition for 30 mins prior to nigericin addition and measured after 30 mins by Western blot analysis. In kind it is cell-based. Conditions: dose 2.5-10 µM, time 1.0 hrs.

For data set [5], the system named is BMDM. Briefly: Effect on TNF-alpha secretion in LPS/Nigericin induced C57 mouse BMDM cells at 1.25 to 10 uM preincubated with LPS for 3 hrs followed by compound addition for 30 mins prior to nigericin addition and measured after 30 mins by ELISA. The data set is classed as functional, cell-based. As to conditions: dose 1.25-10 µM, time 1.0 hrs.
The target of data set [6] is NACHT, LRR and PYD domains-containing protein 3 (Mus musculus) (UniProt Q8R4B8). Briefly: Inhibition of NLRP3 inflammasome activation in LPS/Nigericin induced C57 mouse BMDM cells assessed as reduction in IL-1beta maturation in cell supernatant at 2.5 to 10 uM preincubated with LPS for 3 hrs followed by compound addition for 30 mins prior to nigericin addition and measured after 30 mins by Western blot analysis. In kind it is cell-based. As to conditions: dose 2.5-10 µM, time 1.0 hrs. For orientation: In western blotting, separated proteins are transferred to a membrane and probed.

Data set [7] shares this target. Briefly: Inhibition of NLRP3 inflammasome activation in LPS/Nigericin induced C57 mouse BMDM cells assessed as reduction in pro-IL-1beta expression in cell supernatant at 2.5 to 10 uM preincubated with LPS for 3 hrs followed by compound addition for 30 mins prior to nigericin addition and measured after 30 mins by Western blot analysis. The data set is classed as cell-based. As to conditions: dose 2.5-10 µM, time 1.0 hrs.

Data set [8] shares this target. Briefly: Inhibition of NLRP3 inflammasome activation in LPS/Nigericin induced C57 mouse BMDM cells assessed as reduction in active caspase-1 in cell supernatant at 2.5 to 10 uM preincubated with LPS for 3 hrs followed by compound addition for 30 mins prior to nigericin addition and measured after 30 mins by Western blot analysis. In kind it is cell-based. As to conditions: dose 2.5-10 µM, time 1.0 hrs.

Data set [9] has the same target. The data set is described as follows: Inhibition of NLRP3 inflammasome activation in LPS/Nigericin induced C57 mouse BMDM cells assessed as reduction in pro-caspase-1(p45) expression in cell supernatant at 2.5 to 10 uM preincubated with LPS for 3 hrs followed by compound addition for 30 mins prior to nigericin addition and measured after 30 mins by Western blot analysis. The data set is classed as cell-based. Conditions: dose 2.5-10 µM, time 1.0 hrs.

For data set [10] the target is unchanged. The data set is described as follows: Inhibition of NLRP3 inflammasome activation in LPS/Nigericin induced C57 mouse BMDM cells assessed as reduction in NEK7 expression in cell supernatant at 2.5 to 10 uM preincubated with LPS for 3 hrs followed by compound addition for 30 mins prior to nigericin addition and measured after 30 mins by Western blot analysis. The data set is classed as cell-based. As to conditions: dose 2.5-10 µM, time 1.0 hrs.

Data set [11] shares this target. Briefly: Inhibition of NLRP3 inflammasome activation in LPS/Nigericin induced C57 mouse BMDM cells assessed as reduction in intracellular NLRP3 expression in cell supernatant at 2.5 to 10 uM preincubated with LPS for 3 hrs followed by compound addition for 30 mins prior to nigericin addition and measured after 30 mins by Western blot analysis. Conditions: dose 2.5-10 µM, time 1.0 hrs. The data set is classed as cell-based.

Data set [12] concerns the target T1, NACHT, LRR and PYD domains-containing protein 3. Briefly: Inhibition of NLRP3 inflammasome activation in […]-differentiated human THP-1 cells assessed as effect on ROS production at 10 uM preincubated with LPS for 3 hrs followed by compound addition for 30 mins prior to nigericin addition and measured after 30 mins by MitoSOX dye/Hoechst 33342 staining based confocal microscopic analysis. In kind it is cell-based. Conditions: time 1.0 hrs.

The target is the same in data set [13]. The data set is described as follows: Inhibition of NLRP3 inflammasome activation in […]-differentiated human THP-1 cells assessed as effect on potassium efflux at 2.5 to 10 uM preincubated with LPS for 3 hrs followed by compound addition for 30 mins prior to nigericin addition and measured after 30 mins by fluorescence based analysis. In kind it is cell-based. Conditions: dose 2.5-10 µM, time 1.0 hrs.

For data set [14] the target is unchanged. The data set is described as follows: Inhibition of NLRP3 inflammasome activation in […]-differentiated human THP-1 cells assessed as effect on chloride efflux at 2.5 to 10 uM preincubated with LPS for 3 hrs followed by compound addition for 30 mins prior to nigericin addition and measured after 30 mins by fluorescence based analysis. In kind it is cell-based. As to conditions: dose 2.5-10 µM, time 1.0 hrs.

In data set [15] the target is NACHT, LRR and PYD domains-containing protein 3 (Mus musculus) (UniProt Q8R4B8). Briefly: Inhibition of NLRP3 inflammasome activation in C57 mouse BMDM cells assessed as reduction in IL-1beta secretion at 5 uM preincubated with LPS for 3 hrs followed by compound addition for 30 mins prior to nigericin addition and measured after 30 mins by Western blot analysis. In kind it is cell-based. As to conditions: time 1.0 hrs.

For data set [16] the target is unchanged. The data set is described as follows: Inhibition of NLRP3 inflammasome activation in C57 mouse BMDM cells assessed as reduction in caspase-1 activation at 5 uM preincubated with LPS for 3 hrs followed by compound addition for 30 mins prior to nigericin addition and measured after 30 mins by Western blot analysis. In kind it is cell-based. Conditions: time 1.0 hrs.

In data set [17] the target is T2, Interferon-inducible protein AIM2 (Mus musculus) (UniProt Q91VJ1).
T2 sequence (whole entry): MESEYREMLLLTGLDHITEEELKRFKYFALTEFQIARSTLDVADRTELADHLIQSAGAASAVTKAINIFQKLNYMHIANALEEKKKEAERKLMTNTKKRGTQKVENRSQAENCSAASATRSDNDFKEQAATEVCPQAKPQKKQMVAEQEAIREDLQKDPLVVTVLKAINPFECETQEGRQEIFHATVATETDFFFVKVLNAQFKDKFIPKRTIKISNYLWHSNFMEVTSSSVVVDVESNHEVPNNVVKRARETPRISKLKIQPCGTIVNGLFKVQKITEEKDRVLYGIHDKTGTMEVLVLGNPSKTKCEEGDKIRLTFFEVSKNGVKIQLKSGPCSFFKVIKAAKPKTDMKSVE
Briefly: Inhibition of AIM2 inflammasome activation in C57 mouse BMDM cells assessed as reduction in IL-1beta secretion at 5 uM preincubated with LPS for 3 hrs followed by poly(dA:dT) stimulation for 4 hrs by Western blot analysis. The data set is classed as cell-based.

Each structure is given as a SMILES string. Calls of active or inactive are those of the source. The rule behind the calls is not given here.

NACHT, LRR and PYD domains-containing protein 3 (Mus musculus), sequence (Q8R4B8 whole entry, the tested form may be a part): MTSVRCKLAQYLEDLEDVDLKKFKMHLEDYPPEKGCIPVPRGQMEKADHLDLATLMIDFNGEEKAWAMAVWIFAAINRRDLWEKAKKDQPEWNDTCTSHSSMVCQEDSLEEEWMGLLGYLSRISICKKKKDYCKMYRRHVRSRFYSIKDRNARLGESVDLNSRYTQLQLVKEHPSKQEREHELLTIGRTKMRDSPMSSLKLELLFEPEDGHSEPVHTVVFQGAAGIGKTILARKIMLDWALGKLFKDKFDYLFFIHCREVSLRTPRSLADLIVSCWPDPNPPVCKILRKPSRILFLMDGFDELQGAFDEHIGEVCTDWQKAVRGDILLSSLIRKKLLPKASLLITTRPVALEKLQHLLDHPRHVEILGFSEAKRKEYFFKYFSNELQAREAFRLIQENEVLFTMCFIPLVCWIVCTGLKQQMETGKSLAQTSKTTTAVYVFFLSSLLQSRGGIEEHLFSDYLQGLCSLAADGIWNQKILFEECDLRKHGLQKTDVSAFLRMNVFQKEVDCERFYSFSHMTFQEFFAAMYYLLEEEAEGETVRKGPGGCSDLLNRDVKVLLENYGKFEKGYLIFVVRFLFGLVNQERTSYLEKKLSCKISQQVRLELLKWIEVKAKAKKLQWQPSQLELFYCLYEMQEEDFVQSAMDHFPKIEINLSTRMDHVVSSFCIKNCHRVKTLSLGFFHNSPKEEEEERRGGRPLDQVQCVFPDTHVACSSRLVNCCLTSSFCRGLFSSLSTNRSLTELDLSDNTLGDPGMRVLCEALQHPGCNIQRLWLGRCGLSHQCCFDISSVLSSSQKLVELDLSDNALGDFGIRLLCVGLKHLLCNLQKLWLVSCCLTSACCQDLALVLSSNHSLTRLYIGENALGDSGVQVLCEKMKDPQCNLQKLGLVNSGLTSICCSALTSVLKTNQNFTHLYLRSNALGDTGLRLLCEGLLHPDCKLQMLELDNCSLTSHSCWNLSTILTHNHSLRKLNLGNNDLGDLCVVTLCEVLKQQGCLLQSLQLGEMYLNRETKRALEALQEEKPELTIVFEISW
T1 sequence (Q96P20 whole entry, the tested form may be a part): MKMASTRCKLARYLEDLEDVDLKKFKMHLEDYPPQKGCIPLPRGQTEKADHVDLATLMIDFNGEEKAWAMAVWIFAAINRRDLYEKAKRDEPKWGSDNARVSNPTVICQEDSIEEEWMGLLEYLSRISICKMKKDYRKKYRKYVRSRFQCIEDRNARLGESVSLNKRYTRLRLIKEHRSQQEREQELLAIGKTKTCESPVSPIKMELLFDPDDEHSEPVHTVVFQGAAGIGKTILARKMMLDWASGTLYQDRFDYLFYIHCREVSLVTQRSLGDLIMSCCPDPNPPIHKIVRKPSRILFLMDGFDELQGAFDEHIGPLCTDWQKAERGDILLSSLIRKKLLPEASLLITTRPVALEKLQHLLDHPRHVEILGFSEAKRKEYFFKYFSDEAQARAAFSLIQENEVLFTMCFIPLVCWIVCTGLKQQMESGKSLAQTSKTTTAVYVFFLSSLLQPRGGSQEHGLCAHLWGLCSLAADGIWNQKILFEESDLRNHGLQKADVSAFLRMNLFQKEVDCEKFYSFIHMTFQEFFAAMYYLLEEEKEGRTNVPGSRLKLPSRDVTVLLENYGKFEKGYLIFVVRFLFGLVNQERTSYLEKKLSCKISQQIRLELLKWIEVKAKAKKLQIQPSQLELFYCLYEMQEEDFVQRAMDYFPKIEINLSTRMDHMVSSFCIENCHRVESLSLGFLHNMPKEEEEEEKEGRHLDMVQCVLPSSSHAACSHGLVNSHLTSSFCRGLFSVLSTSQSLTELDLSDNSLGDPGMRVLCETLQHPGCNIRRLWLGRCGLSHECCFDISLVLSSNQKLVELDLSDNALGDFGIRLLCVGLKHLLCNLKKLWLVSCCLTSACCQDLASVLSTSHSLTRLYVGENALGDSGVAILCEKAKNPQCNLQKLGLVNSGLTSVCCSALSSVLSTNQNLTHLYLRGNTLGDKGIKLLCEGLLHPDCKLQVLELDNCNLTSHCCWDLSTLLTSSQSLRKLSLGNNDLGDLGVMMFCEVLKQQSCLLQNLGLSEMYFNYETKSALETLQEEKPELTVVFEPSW

In general, IC50 refers to the point on the concentration scale where inhibition reaches its midpoint. As to `COc1ccc(N2C(=O)/C(=C\c3ccccc3C(F)(F)F)SC2=S)cc1`, the IC50 in [1] was found to be 2300 nM. Also, the Activity result in the data set on BMDM [2], with THP-1, in the data set on L02 and in the data set with HEK-293T was “Non-Toxic” each time. Also, the inhibition result in [3], in [6], in data set [8], in [15] and in [16] was “Active” in each case. The inhibition entry in [4], in data set [7], in data set [9], in data set [10], in data set [11] and in data set [12] was “inactive” in each case. Also, the inhibition result in data set [13], in data set [14] and in data set [17] was “inactive” each time. The result with BMDM [5] was inactive.

For the origin of these results see ChEMBL document CHEMBL5634101, “Discovery of NLRP3 inhibitors using machine learning: Identification of a hit compound to treat NLRP3 activation-driven diseases” (Eur J Med Chem, 2023).
